From patent US20230339886A1 (University of Florida Research Foundation, Incorporated, priority 2020, published 2023) come the findings set out here.

In one assay the target is T1, REV-ERBα LBD (human; residues 281-614 Δ324-422) (Homo sapiens, UniProt P20393, DEL324-422).
T1 construct: 6×Histag-REV-ERBα LBD (human; residues 281-614 Δ324-422); made in house; host or cells: Escherichia coli
T1 sequence (P20393 with tags, fused parts or gaps DEL324-422): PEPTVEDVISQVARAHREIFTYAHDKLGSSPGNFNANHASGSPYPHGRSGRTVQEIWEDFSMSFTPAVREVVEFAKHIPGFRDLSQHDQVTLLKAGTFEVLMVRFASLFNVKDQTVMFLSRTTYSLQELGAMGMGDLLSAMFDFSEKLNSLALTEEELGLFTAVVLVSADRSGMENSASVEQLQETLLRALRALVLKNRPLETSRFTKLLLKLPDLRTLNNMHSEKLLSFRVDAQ
T1 sequence (Q9Y618 2335-2356 partner limits assumed): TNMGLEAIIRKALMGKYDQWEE
Put plainly: TR-FRET corepressor interaction assay (REV-ERBα LBD, FITC-SMRT peptide). To be noted: FITC-SMRT peptide, read-out: REVERBα agonism (EC50 class, FRET assay). The assay is classed as biochemical. A digest of the protocol:
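Compound serial dilutions (in DMSO, triplicate) incubated 2 h at 4 °C; Tb donor excited at 340 nm, emission read at 495 nm and FITC acceptor at 520 nm. TR-FRET ratio (520/495 nm) plotted against ligand concentration and fitted to a sigmoidal dose-response curve.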
Take `CC(NS(=O)(=O)C1CC1)c1cn(CC(C)(C)C)c2cc(-c3ccccc3C(F)(F)F)c(F)cc12` (centres unmarked) [Example 423, N-(1-(5-fluoro-1-neopentyl-6-(2-(trifluoromethyl)phenyl)-1H-indol-3-yl)ethyl)cyclopropanesulfonamide]: the half-maximal effective concentration (EC50) was below 500 nM.

For the compound `CC(C)(C)Cn1cc(C(NS(=O)(=O)C2CCC2)C2CC2)c2ccc(-c3ccccc3C(F)(F)F)cc21` (centres unmarked) [Example 424, N-(cyclopropyl(1-neopentyl-6-(2-(trifluoromethyl)phenyl)-1H-indol-3-yl)methyl)cyclobutanesulfonamide], the 50% effective concentration (EC50) is below 500 nM.

With `CCC(NS(=O)(=O)C1CCC1)c1cn(CC(C)(C)C)c2cc(-c3ccccc3C(F)(F)F)ccc12` (centres unmarked) [Example 425, N-(1-(1-neopentyl-6-(2-(trifluoromethyl)phenyl)-1H-indol-3-yl)propyl)cyclobutanesulfonamide], the EC50 was below 500 nM.

On to `CC(C)(C)Cn1cc([C@H](NS(=O)(=O)C2CC2(C)C)C(F)(F)F)c2ccc(-c3ccccc3C(F)(F)F)cc21` (stereo partly drawn) [Example 426, 2,2-dimethyl-N—((S)-2,2,2-trifluoro-1-(1-neopentyl-6-(2-(trifluoromethyl)phenyl)-1H-indol-3-yl)ethyl)cyclopropane-1-sulfonamide], for which the EC50 is 500 to 3000 nM.

With `CC(C)(C)Cn1cc([C@H](NS(=O)(=O)C2CCC2)C(F)(F)F)c2ccc(C3CCCC3)nc21` [Example 427, (S)—N-(1-(6-cyclopentyl-1-neopentyl-1H-pyrrolo[2,3-b]pyridin-3-yl)-2,2,2-trifluoroethyl)cyclobutanesulfonamide], the EC50 is below 500 nM.

In the case of `CC(C)(C)Cn1cc([C@H](NS(=O)(=O)C2CCC2)C(F)(F)F)c2cc(F)c(C3CCCC3)cc21` [Example 428, (S)—N-(1-(6-cyclopentyl-5-fluoro-1-neopentyl-1H-indol-3-yl)-2,2,2-trifluoroethyl)cyclobutanesulfonamide], the EC50 was below 500 nM.

Take `CC(C)(C)Cn1cc([C@H](CF)NS(=O)(=O)C2CCC2)c2ccc(-c3ccccc3C(F)(F)F)cc21` [Example 429, (R)—N-(2-fluoro-1-(1-neopentyl-6-(2-(trifluoromethyl)phenyl)-1H-indol-3-yl)ethyl)cyclobutanesulfonamide]: the EC50 is below 500 nM.

As for `CCOC(=O)[C@@H](NS(=O)(=O)C1CC1)c1cn(CC(C)(C)C)c2cc(-c3ccccc3C(F)(F)F)ccc12` [Example 430, ethyl (S)-2-(cyclopropanesulfonamido)-2-(1-neopentyl-6-(2-(trifluoromethyl)phenyl)-1H-indol-3-yl)acetate], the concentration giving a half-maximal response (EC50) is above 3000 nM.

With `CC(C)(C)Cn1cc([C@H](NS(=O)(=O)C2CC2)C(=O)O)c2ccc(-c3ccccc3C(F)(F)F)cc21` [Example 431, (S)-2-(cyclopropanesulfonamido)-2-(1-neopentyl-6-(2-(trifluoromethyl)phenyl)-1H-indol-3-yl)acetic acid], the concentration for a half-maximal effect (EC50) was above 3000 nM.

In the case of `CC(C)(C)Cn1cc([C@@H](CO)NS(=O)(=O)C2CC2)c2ccc(-c3ccccc3C(F)(F)F)cc21` [Example 432, (S)—N-(2-hydroxy-1-(1-neopentyl-6-(2-(trifluoromethyl)phenyl)-1H-indol-3-yl)ethyl)cyclopropanesulfonamide], the concentration giving a half-maximal response (EC50) is below 500 nM.

As to `CC(NS(=O)(=O)C12CC(C1)C2)c1cn(CC(C)(C)C)c2cc(-c3ccccc3C(F)(F)F)ccc12` (centres unmarked) [Example 433, N-(1-(1-neopentyl-6-(2-(trifluoromethyl)phenyl)-1H-indol-3-yl)ethyl)bicyclo[1.1.1]pentane-1-sulfonamide], the EC50 is below 500 nM.

Consider `NC(=O)c1cccc(F)c1-c1ccc2c([C@H](NS(=O)(=O)C3CCC3)C(F)(F)F)cn(C3CCOCC3)c2c1` [Example 434, (S)-2-(3-(1-(cyclobutanesulfonamido)-2,2,2-trifluoroethyl)-1-(tetrahydro-2H-pyran-4-yl)-1H-indol-6-yl)-3-fluorobenzamide], for which the half-maximal effective concentration (EC50) is above 3000 nM.

Turning to `CC(C)(C)Cn1cc([C@H](NS(=O)(=O)C2CCC2)C(F)F)c2cc(F)c(-c3ccccc3C(F)(F)F)cc21` [Example 435, (S)—N-(2,2-difluoro-1-(5-fluoro-1-neopentyl-6-(2-(trifluoromethyl)phenyl)-1H-indol-3-yl)ethyl)cyclobutanesulfonamide], the concentration for a half-maximal effect (EC50) is below 500 nM.

For the compound `CC(C)(C)Cn1cc([C@@H](CF)NS(=O)(=O)C2CCC2)c2cc(F)c(-c3ccccc3C(F)(F)F)cc21` [Example 436, (S)—N-(2-fluoro-1-(5-fluoro-1-neopentyl-6-(2-(trifluoromethyl)phenyl)-1H-indol-3-yl)ethyl)cyclobutanesulfonamide], the EC50 is below 500 nM.

For the compound `CC(C)(C)Cn1cc([C@H](NS(=O)(=O)C2CC(F)C2)C(F)(F)F)c2ccc(-c3ccccc3C(F)(F)F)cc21` (stereo partly drawn) [Example 437, (S)-3-fluoro-N-(2,2,2-trifluoro-1-(1-neopentyl-6-(2-(trifluoromethyl)phenyl)-1H-indol-3-yl)ethyl)cyclobutane-1-sulfonamide], the EC50 was in the range of 500 to 3000 nM.

Take `CCCn1cc([C@H](NS(=O)(=O)C2CCC2)C(F)(F)F)c2ccc(-c3ccccc3C(F)(F)F)cc21` [Example 438, (S)—N-(2,2,2-trifluoro-1-(1-propyl-6-(2-(trifluoromethyl)phenyl)-1H-indol-3-yl)ethyl)cyclobutanesulfonamide]: the EC50 was below 500 nM.

As for `NC(=O)c1cccc(F)c1-c1ccc2c([C@H](NS(=O)(=O)C3CCC3)C(F)(F)F)cn(C3CCC3)c2c1` [Example 439, (S)-2-(3-(1-(cyclobutanesulfonamido)-2,2,2-trifluoroethyl)-1-cyclobutyl-1H-indol-6-yl)-3-fluorobenzamide], the EC50 is 500 to 3000 nM.

`CC(C)(C)Cn1cc([C@H](NS(=O)(=O)C2CCC2)C(F)(F)F)c2cc(F)c(-c3ccccc3C#N)cc21` [Example 440, (S)—N-(1-(6-(2-cyanophenyl)-5-fluoro-1-neopentyl-1H-indol-3-yl)-2,2,2-trifluoroethyl)cyclobutanesulfonamide]: the EC50 is below 500 nM.

For the compound `CC(C)(C)Cn1cc([C@H](NS(=O)(=O)C2CCC2)C(F)(F)F)c2cc(F)c(-c3cnccc3C#N)cc21` [Example 441, (S)—N-(1-(6-(4-cyanopyridin-3-yl)-5-fluoro-1-neopentyl-1H-indol-3-yl)-2,2,2-trifluoroethyl)cyclobutanesulfonamide], the EC50 was below 500 nM.

In the case of `CC(F)(F)Cn1cc([C@H](NS(=O)(=O)C2CCC2)C(F)(F)F)c2ccc(-c3ccccc3C(F)(F)F)cc21` [Example 442, (S)—N-(1-(1-(2,2-difluoropropyl)-6-(2-(trifluoromethyl)phenyl)-1H-indol-3-yl)-2,2,2-trifluoroethyl)cyclobutanesulfonamide], the 50% effective concentration (EC50) lay in the range of 500 to 3000 nM.

The assay is the same for the next values; noted with them: Table 2, read-out: REVERBα agonism (EC50 class, FRET assay).
`N#CC1(Cn2cc([C@H](NS(=O)(=O)C3CCC3)C(F)(F)F)c3ccc(-c4ccccc4C(F)(F)F)nc32)CC1` [Example 414, (S)—N-(1-(1-((1-cyanocyclopropyl)methyl)-6-(2-(trifluoromethyl)phenyl)-1H-pyrrolo[2,3-b]pyridin-3-yl)-2,2,2-trifluoroethyl)cyclobutanesulfonamide]: the EC50 is below 500 nM.

Regarding `CC(C)c1ccc2c([C@H](NS(=O)(=O)C3CCC3)C(F)(F)F)cn(CC(C)(C)C)c2c1` [Example 415, (S)—N-(2,2,2-trifluoro-1-(6-isopropyl-1-neopentyl-1H-indol-3-yl)ethyl)cyclobutanesulfonamide], the EC50 was 500 to 3000 nM.

For the compound `CC(C)(C)Cn1cc([C@H](NS(=O)(=O)C2CCC2)C(F)(F)F)c2ccc(C(F)(F)F)cc21` [Example 416, (S)—N-(2,2,2-trifluoro-1-(1-neopentyl-6-(trifluoromethyl)-1H-indol-3-yl)ethyl)cyclobutanesulfonamide], the half-maximal effective concentration (EC50) was above 3000 nM.

On to `CC(C)S(=O)(=O)NCCn1cc(CC(C)(C)C)c2cc(-c3ccc(C(F)(F)F)cc3C(F)(F)F)ccc21` [Example 417, N-(2-(5-(2,4-bis(trifluoromethyl)phenyl)-3-neopentyl-1H-indol-1-yl)ethyl)propane-2-sulfonamide], for which the EC50 was below 500 nM.

Regarding `CC(C)(C)Cc1cn(CCNS(=O)(=O)C2CCC2)c2ccc(-c3ccc(C(F)(F)F)cc3C(F)(F)F)cc12` [Example 418, N-(2-(5-(2,4-bis(trifluoromethyl)phenyl)-3-neopentyl-1H-indol-1-yl)ethyl)cyclobutanesulfonamide], the EC50 is below 500 nM.

For the compound `CC(C)(C)Cn1cc([C@H](NS(=O)(=O)C2CC(F)(F)C2)C(F)(F)F)c2ccc(-c3ccccc3C(F)(F)F)cc21` [Example 419, (S)-3,3-difluoro-N-(2,2,2-trifluoro-1-(1-neopentyl-6-(2-(trifluoromethyl)phenyl)-1H-indol-3-yl)ethyl)cyclobutane-1-sulfonamide], the EC50 lay within 500 to 3000 nM.

Regarding `CC(NS(=O)(=O)C1CC1)c1cn(CC(C)(C)C)c2cc(-c3ccccc3C(F)(F)F)ccc12` (centres unmarked) [Example 420, N-(1-(1-neopentyl-6-(2-(trifluoromethyl)phenyl)-1H-indol-3-yl)ethyl)-cyclopropanesulfonamide], the EC50 is below 500 nM.

On to `O=S(=O)(N[C@@H](c1cn(CC2CCCC2)c2cc(-c3ccccc3C(F)(F)F)c(F)cc12)C(F)(F)F)C1CCC1` [Example 421, (S)—N-(1-(1-(cyclopentylmethyl)-5-fluoro-6-(2-(trifluoromethyl)phenyl)-1H-indol-3-yl)-2,2,2-trifluoroethyl)cyclobutanesulfonamide], for which the EC50 is below 500 nM.

`O=S(=O)(N[C@@H](c1cn(CC2CCCC2)c2cc(-c3ccccc3C(F)(F)F)c(F)cc12)C(F)(F)F)C1CC1` [Example 422, (S)—N-(1-(1-(cyclopentylmethyl)-5-fluoro-6-(2-(trifluoromethyl)phenyl)-1H-indol-3-yl)-2,2,2-trifluoroethyl)cyclopropanesulfonamide]: the concentration giving a half-maximal response (EC50) is below 500 nM.
